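96-well plates; 48 h exposure; 5 concentrations. Endpoints by linear interpolation between flanking doses. Not reached: highest tested concentration assigned. GI50: concentration for 50% inhibition of growth. TGI: total growth inhibition.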
Experiments:
Test in all cases: NCI anticancer screen, dose series, 48 h
MDA-MB-435 = tested on: MDA-MB-435
NCI/ADR-RES ovarian = tested on: NCI/ADR-RES ovarian
HL-60(TB) leukemia = tested on: HL-60(TB) leukemia
TK-10 renal = tested on: TK-10 renal
MCF7 breast = tested on: MCF7 breast
RPMI-8226 leukemia = tested on: RPMI-8226 leukemia
SF-268 CNS = tested on: SF-268 CNS
UACC-62 melanoma = tested on: UACC-62 melanoma
NCI-H522 lung = tested on: NCI-H522 lung
SK-MEL-2 melanoma = tested on: SK-MEL-2 melanoma

SMILES | GI50 (MDA-MB-435) [nM] | TGI (MDA-MB-435) [µM] | GI50 (NCI/ADR-RES ovarian) [µM] | TGI (NCI/ADR-RES ovarian) [µM] | GI50 (HL-60(TB) leukemia) [nM] | TGI (HL-60(TB) leukemia) [µM] | GI50 (TK-10 renal) [nM] | TGI (TK-10 renal) [µM] | GI50 (MCF7 breast) [nM] | TGI (MCF7 breast) [µM] | GI50 (RPMI-8226 leukemia) [nM] | TGI (RPMI-8226 leukemia) [µM] | GI50 (SF-268 CNS) [nM] | TGI (SF-268 CNS) [µM] | GI50 (UACC-62 melanoma) [nM] | TGI (UACC-62 melanoma) [µM] | GI50 (NCI-H522 lung) [nM] | TGI (NCI-H522 lung) [µM] | GI50 (SK-MEL-2 melanoma) [µM] | TGI (SK-MEL-2 melanoma) [µM]
COc1ccc2c(c1)c(-c1nc(-c3c[nH]c4ncccc34)cs1)cn2CCCN1CCOCC1 | 1750 | 3.37 | 3.02 | 11.3 | 2110 | 4.36 | 3480 | 13.6 | 1430 | 8.83 | 1920 | 4.86 | 2690 | 10.3 | 1970 | 4.32 | 2070 | 6.03 | 1.88 | 3.77
N#CC1c2ccccc2C=CN1C(=O)CCCl (stereo not given) | 12400 | 27.1 | 23 | 66.3 | 9090 | 40.8 | 2160 | 6.02 | 2600 | 12.5 | 2660 | 9.25 | 15200 | 30.9 | 14900 | 29.7 | 1520 | 2.92 | 13.6 | 28
O=C1NC(=N[C@@H](CO)c2ccccc2)S/C1=C\c1ccc2ncccc2c1 | 3650 | 15.3 | > 25 | > 25 | 6070 | 19.4 | 4920 | > 25 | 8380 | > 25 | 8160 | > 25 | 14100 | > 25 | 10400 | > 25 | 5930 | > 20 | 4.73 | 12.9
OC1(c2ccc(Cl)c(C(F)(F)F)c2)CCN(CCCC(c2ccc(F)cc2)c2ccc(F)cc2)CC1 | 819 | 1.53 | 0.863 | 1.77 | 1010 | 2.02 | 890 | 1.69 | 796 | 1.47 | 1100 | 2.67 | 894 | 1.88 | 810 | 1.5 | 902 | 1.79 | 0.955 | 1.76
CCN(CC)CCCNc1ccc(C)c2sc3ccccc3c(=O)c12 | 210 | 0.451 | 1.4 | 4.48 | 1710 | 3.63 | 1370 | 2.76 | 277 | 1.05 | 330 | 1.34 | 1310 | 3.74 | 205 | 0.42 | 3080 | 15.9 | 1.66 | 3.45
CC1(C)N=C(N)N=C(N)N1c1ccc(CCC(=O)Nc2ccc(S(=O)(=O)F)cc2)cc1 | 461 | > 100 | 98.3 | > 100 | 854 | > 100 | 1720 | > 100 | 1800 | > 100 | 1220 | > 100 | 1310 | > 100 | 388 | > 100 | 1260 | > 100 | 26.4 | > 100
